Columns and labels:
GRAVIN = experiment: Real-time RT-PCR of Gravin transcripts; format: cell-based, human; conditions: melanoma cell lines treated with BQ788
Method: (§1) Equal amounts of RNA from cells that were treated with BQ788 for 3 days were subjected to real-time RT-PCR analysis for the detection VEGF (A), HIF-1α (B) and Gravin (C) transcripts. Differences in expression levels are shown as x fold change and are statistically significant (p<0.05) unless a column in marked as non significant (N.S.). Sections of two representative tumors derived from a human melanoma cell line grown in nude mice and injected either with vehicle (D) or BQ788 (E) were stained with anti CD-31 to highlight blood vessels (brown staining, Lahav et al, 1999).
RNA was prepared from the different cell lines in different culture conditions using SV total RNA isolation kit (Promega) according to the manufacturer's protocol. For each sample RNA concentration was determined using the total RNA nano procedure of an Agilent bioanalyzer. A stock of SK-MEL-28 RNA aliquots was prepared containing 10, 20, 50, 100, 200, 500 and 1000 ng/12 μl for use as a standard curve and kept in −80° C. For the experimental unknown samples, a stock of 100 ng/12 μl RNA aliquots from each cell line and condition was prepared and stored at −80° C. […] A standard curve of Ct versus RNA quantity was established and accordingly the Ct in the unknown samples was correlated to quantity of transcript. […]

ETRB [1] = experiment: Western blot of ETRB protein after BQ788; format: cell-based, human; conditions: SK-MEL-28 cells; 3, 5 and 7 days with BQ788
Excerpt: (§2) Real-time RT-PCR detection of ETRB transcripts (see legends FIG. 2) (A). ETRB protein expression compared to tubulin in SK-MEL-28 cells after 3, 5 and 7 days with (+) or without (−) BQ788 (B).
Samples were subjected to SDS-PAGE according to the method as described (Laemmli, Cleavage of structural proteins during the assembly of the head of bacteriophage T4, Nature, 227:680-685 (1970)). Proteins were blotted onto PVDF (Millipore) membranes and the filters were blocked with 5% non-fat dry milk. Immunostaining was preformed with anti-human endothelin receptor B antibody (Assay Designs, Inc.) (4 μg/ml) or anti-human Tubulin (Oncogene Research Products) (1 μg/ml) followed by incubation with a peroxidase conjugated goat anti rabbit secondary antibody (Sigma) (1:5000). Bands of 51 kd and 60 kd for ETRB (Hiraki, et al, Regular immunohistochemical localization of endothelin-1 and endothelin receptor B in normal, hyperplastic and neoplastic human adrenocortical cells, Pathol. Int., 47:117-125 (1997)) and tubulin respectively were detected using a chemiluminescent substrate kit (Interchim) according to the manufacturer's recommendations.

[2] = hypertension patients and healthy volunteers; cited from earlier work
[3] = tested on: tumors derived from a human melanoma cell line grown in nude mice; experiment: Anti-CD31 immunohistochemistry of tumor sections (angiogenesis); format: in vivo; conditions: tumors injected with BQ788 vs vehicle
Method: as §1
The relationship between the expression patterns of VEGF and GRAVIN is consistent with that observed in astrocytes, where GRAVIN down-regulates VEGF expression (Lee, et al., SSeCKS regulates angiogenesis and tight junction formation in blood-brain barrier, Nat. Med., 9:900-906 (2003)). In the present study we observed, at least for the most sensitive cell lines, LN-met and SK-MEL-28, that down-regulation of GRAVIN correlates with induction of VEGF. We therefore analyzed tissue sections of tumors derived from a human melanoma cell line grown in nude mice and injected with BQ788 for signs of changes in angiogenesis (Lahav, et al., An endothelin receptor B antagonist inhibits growth and induces cell death in human melanoma cells in vitro and in vivo, Proc. Natl. Acad. Sci. U.S.A., 96:11496-11500 (1999)).

ETRB [4] = experiment: Real-time RT-PCR of ETRB transcripts; format: cell-based, human; conditions: BQ788 treatment
Method: as §2
RNA was prepared from the different cell lines in different culture conditions using SV total RNA isolation kit (Promega) according to the manufacturer's protocol. For each sample RNA concentration was determined using the total RNA nano procedure of an Agilent bioanalyzer. A stock of SK-MEL-28 RNA aliquots was prepared containing 10, 20, 50, 100, 200, 500 and 1000 ng/12 μl for use as a standard curve and kept in −80° C. For the experimental unknown samples, a stock of 100 ng/12 μl RNA aliquots from each cell line and condition was prepared and stored at −80° C. For each real-time experiment one series of standard curve and unknown experimental series of aliquots was put on ice for use. Complementary DNA was prepared by adding to each tube 0.5 μl of random hexamers (Promega) and 1 μl of 10 mM dNTP mix (Promega) and incubating at 65° C. for 5 min. 4 μl of 5× M-MLV buffer (Promega), 1 μl of the RNase inhibitor RNasin (Promega) and 1 μl of M-MLV RT RNase H (Promega) were then added and the solution was incubated at 42° C. for 50 min followed by 15 min at 70° C. For real time reactions 15 μl of each cDNA sample were transferred to 3 wells in a 386 well plate. To each well we added 10 μl of TaqMan universal PCR master mix (Applied Biosystems), 1 μl of primers+probe mix (Assays-on-Demand from Applied Biosystems: EDNRB Hs00240747, BCL-2A1 Hs00187845, PARP-3 Hs00154151, VEGF Hs00173626, HIF-1α Hs00153153 and Gravin Hs00374507) and 4 μl of nuclease free water (Promega). Wells containing water instead of cDNA served as negative controls. The samples were subjected to 40 cycles of 15 sec at 95° C. and 1 min at 60° C. A standard curve of Ct versus RNA quantity was established and accordingly the Ct in the unknown samples was correlated to quantity of transcript.

caspase 3 = experiment: Western blot for caspase 3 activation; format: cell-based; conditions: BQ788-treated melanoma cells; data not shown
Excerpt: Down-regulation of BCL2-A1 results in caspase 9 activation but not caspase 3 or 8 cleavage (Duriez, et al., A1 functions at the mitochondria to delay endothelial apoptosis in response to tumor necrosis factor, J. Biol. Chem., 275:18099-18107 (2000); Pagliari, et al., Macrophages require constitutive NF-kappaB activation to maintain A1 expression and mitochondrial homeostasis, Mol. Cell Biol., 20:8855-8865 (2000)). […] Whether caspase 6 activation occurs via reduction in BCL-2A1 expression or by alternative pathways remains to be determined.

CCCC[C@@H](NC(=O)[C@@H](Cc1cn(C(=O)OC)c2ccccc12)NC(=O)[C@H](CC(C)(C)C)NC(=O)N1[C@H](C)CCC[C@@H]1C)C(=O)O [BQ788, N-cis-2,6-dimethylpiperidinocarbonyl-L-γ-methylleucyl-D-1-methoxycarbonyltrptophanyl-D-norleucine]
GRAVIN expression (GRAVIN): down-regulated
ETRB protein levels (ETRB [1]): reduced
toxicity in clinical trials [2]: not found to be toxic
angiogenesis in tumors (anti-CD31 staining) [3]: clear increase in angiogenesis
reduction in ETRB mRNA expression (ETRB [4]; Cut-met line): 1.49 fold
reduction in ETRB mRNA expression (ETRB [4]; LN-met line): 1.85 fold
reduction in ETRB mRNA expression (ETRB [4]; SK-MEL-28 cells): 11 fold
ETRB expression level change (ETRB [4]; primary melanoma cells): did not show any change
caspase 3 activation (caspase 3): did not reveal caspase 3 activation

From US20060094676A1, “Compositions and methods for treating cancer using compositions comprising an inhibitor of endothelin receptor activity” (priority 2004, published 2006)
